In ChEMBL document CHEMBL4364295, “Discovery of a First-in-Class Receptor Interacting Protein 2 (RIP2) Kinase Specific Clinical Candidate, 2-((4-(Benzo[d]thiazol-5-ylamino)-6-(tert-butylsulfonyl)quinazolin-7-yl)oxy)ethyl Dihydrogen Phosphate, for the Treatment of Inflammatory Diseases” (J Med Chem, 2019):
Each block holds one compound with its values, some of them ahead of it.

What was measured:
[1] = Half life in rat blood; assay type: ADME, tissue-based
[2] = Terminal half life in Gottingen minipig assessed as 2-((4-(Benzo[d]thiazol-5-ylamino)-6-(tert-butylsulfonyl)quinazolin-7-yl)oxy)ethanol level at 2 mg/kg, po or 1 mg/kg, iv by LC/MS/MS analysis; assay type: ADME, organism-based, Sus scrofa; conditions: pig, in vivo
[3] = Prodrug conversion in rat hepatocytes assessed as hydrogenation at 20 uM measured after 4 hrs; assay type: ADME, cell-based, Hepatocyte
[4] = Ratio of brain to blood concentration in Han Wistar rat assessed as 2-((4-(Benzo[d]thiazol-5-ylamino)-6-(tert-butylsulfonyl)quinazolin-7-yl)oxy)ethanol level at 2 mg/kg, iv administered as infusion for 4 hrs; assay type: ADME, organism-based
[5] = Cmax in Gottingen minipig assessed as 2-((4-(Benzo[d]thiazol-5-ylamino)-6-(tert-butylsulfonyl)quinazolin-7-yl)oxy)ethanol level at 1 mg/kg, po by LC/MS/MS analysis; assay type: ADME, organism-based, Sus scrofa; parameters: dose 1 mg/kg, route oral; conditions: pig, in vivo
[6] = Cmax in Sprague-Dawley rat assessed as 2-((4-(Benzo[d]thiazol-5-ylamino)-6-(tert-butylsulfonyl)quinazolin-7-yl)oxy)ethanol level at 2 mg/kg, po by LC/MS/MS analysis; assay type: ADME, organism-based; parameters: dose 2 mg/kg, route oral; conditions: in vivo
[7] = Prodrug conversion in Sprague-Dawley rat stomach assessed as 2-((4-(Benzo[d]thiazol-5-ylamino)-6-(tert-butylsulfonyl)quinazolin-7-yl)oxy)ethanol formation at 2 mg/kg, po or 0.5 mg/kg, iv measured at 15 to 120 mins post dose; assay type: ADME, organism-based; conditions: in vivo
[8] = Prodrug conversion in minipig hepatocytes assessed as hydrogenation at 20 uM measured after 4 hrs; assay type: ADME, cell-based, Sus scrofa, Hepatocyte; conditions: pig
[9] = Solubility of the compound in FaSSIF measured after 4 hrs using hemi-calcium salt form of compound; assay type: physicochemical
[10] = Prodrug conversion in Han Wistar rat skin assessed as 2-((4-(Benzo[d]thiazol-5-ylamino)-6-(tert-butylsulfonyl)quinazolin-7-yl)oxy)ethanol formation at 2 mg/kg, iv administered as infusion for 4 hrs; assay type: ADME, organism-based, Zone of skin; conditions: in vivo
[11] = Prodrug conversion in rat hepatocytes assessed as benzothiazole ring opening at 20 uM measured after 4 hrs; assay type: ADME, cell-based, Hepatocyte
[12] = Prodrug conversion in human hepatocytes assessed as (2S,3S,4S,5R,6R)-6-(2-(4-(benzo[d]thiazol-5-ylamino)-6-(tert-butylsulfonyl)quinazolin-7-yloxy)ethoxy)-3,4,5-trihydroxytetrahydro-2H-pyran-2-carboxylic acid formation at 20 uM measured after 4 hrs; assay type: ADME, cell-based, Hepatocyte
[13] = Prodrug conversion in rat hepatocytes assessed as oxidation at 20 uM measured after 4 hrs; assay type: ADME, cell-based, Hepatocyte
[14] = Prodrug conversion in minipig hepatocytes assessed as 2-(4-(benzo[d]thiazol-5-ylamino)-6-(tert-butylsulfonyl)quinazolin-7-yloxy)acetic acid formation at 20 uM measured after 4 hrs; assay type: ADME, cell-based, Sus scrofa, Hepatocyte; conditions: pig
[15] = Terminal half life in Sprague-Dawley rat at 2 mg/kg, po or 0.5 mg/kg, iv by LC/MS/MS analysis; assay type: ADME, organism-based; conditions: in vivo, read-out: beta t1/2 (converted)
[16] = target: T1, Interleukin-1 receptor type 1 (Homo sapiens, UniProt P14778); assay: Inhibition of IL1R in human monocytes assessed as reduction in IL1beta-induced TNFalpha production; assay type: cell-based
T1 sequence (P14778 whole entry): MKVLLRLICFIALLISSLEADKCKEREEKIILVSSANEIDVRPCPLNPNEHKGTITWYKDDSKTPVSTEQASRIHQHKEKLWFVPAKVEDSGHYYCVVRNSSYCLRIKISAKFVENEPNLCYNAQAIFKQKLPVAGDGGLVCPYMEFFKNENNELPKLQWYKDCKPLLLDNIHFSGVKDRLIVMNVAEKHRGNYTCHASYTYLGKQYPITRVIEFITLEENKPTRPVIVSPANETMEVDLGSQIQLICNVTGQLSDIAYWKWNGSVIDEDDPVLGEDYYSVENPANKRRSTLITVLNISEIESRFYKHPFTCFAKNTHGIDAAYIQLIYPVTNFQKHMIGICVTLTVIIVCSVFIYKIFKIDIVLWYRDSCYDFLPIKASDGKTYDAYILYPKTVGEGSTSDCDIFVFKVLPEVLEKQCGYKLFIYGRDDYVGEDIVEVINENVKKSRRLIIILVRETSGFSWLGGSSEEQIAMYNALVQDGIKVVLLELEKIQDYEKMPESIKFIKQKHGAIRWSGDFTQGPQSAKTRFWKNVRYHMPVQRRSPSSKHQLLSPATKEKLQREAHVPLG

[17] = Clearance in Sprague-Dawley rat at 2 mg/kg, po or 0.5 mg/kg, iv by LC/MS/MS analysis; assay type: ADME, organism-based; conditions: in vivo
[18] = Unbound fraction in dog blood; assay type: ADME, tissue-based, Canis lupus familiaris
[19] = Unbound fraction in human blood; assay type: ADME, tissue-based
[20] = Passive permeability in MDCK cells; assay type: ADME, cell-based, Canis lupus familiaris; conditions: dog, read-out: permeability
[21] = AUC in Sprague-Dawley rat at 20 mg/kg, po using crystalline sample during 7 day dose ranging study by LC/MS/MS analysis; assay type: ADME, organism-based; conditions: in vivo
[22] = Clearance in dog hepatocytes; assay type: ADME, cell-based, Canis lupus familiaris, Hepatocyte

- half-life [1]: 0.583 h
- beta t1/2 [2]: 4.2 h
- Drug metabolism [3]: Metabolite_Detected
- Ratio [4]: 0.065
- Cmax [5]: 340 ng/mL
- Cmax [6]: 170 ng/mL
- Drug metabolism [7]: Metabolite_Detected
- Drug metabolism [8]: Metabolite_Detected
- solubility at 4 h [9]: 130 µg/mL
- Drug metabolism [10]: Metabolite_Detected
- Drug metabolism [11]: Metabolite_Detected
- Drug metabolism [12]: Metabolite_Detected
- Drug metabolism [13]: Metabolite_Detected
- Drug metabolism [14]: Metabolite_Detected
SMILES: CC(C)(C)S(=O)(=O)c1cc2c(Nc3ccc4scnc4c3)ncnc2cc1OCCOP(=O)(O)O.[CaH2]

- half-life [15]: 4.4 h
- IC50 [16]: > 10 µM
- clearance [17]: 27 mL/min/kg
- fraction unbound [18]: 0.089
- fraction unbound [19]: 0.069
- Papp [20]: 16.6 ×10⁻⁶ cm/s
- AUC at 168 h [21]: 8800 ng·h/mL
- CLH [22]: 0.65 mL/min/g
SMILES: CC(C)(C)S(=O)(=O)c1cc2c(Nc3ccc4scnc4c3)ncnc2cc1OCCO
